Laboratory results taken from article PMC3758386 (Psychopharmacology, 2013).
Values joined by “and” are separate entries in the source; they are usually repeats but may differ in a detail not shown here. Identical values can stand only once.

What was measured:
[1] = biological target: K+ Channel hERG (Homo sapiens, UniProt Q12809); experiment: receptor screen, K+ Channel hERG; format: binding; details: from Ki values of Table 2
[2] = test system: rats; experiment: Place conditioning; format: in vivo; details: rat
[3] = test system: extracellular DA levels in the NAC shell; experiment: In vivo microdialysis, extracellular DA in NAC shell; details: rat; for rate of increase in DA concentrations: ±SEM; for DA concentrations in NAC shell at times of conditioning sessions compared with 3.0 mg/kg cocaine (165% of basal): pretreatment 0, 45, 90 min
[4] = test system: Y335A mutant DAT; details: transfected cells, cited from earlier work
[5] = test system: DAT; experiment: radioligand binding, DAT; details: from Ki values of Table 2
[6] = biological target: Dopamine D2L (Homo sapiens, UniProt P14416); experiment: receptor screen, Dopamine D2L; format: binding; details: inactive = displacement at 10,000 nM less than 75%
Sequence of Dopamine D2L (P14416 whole entry): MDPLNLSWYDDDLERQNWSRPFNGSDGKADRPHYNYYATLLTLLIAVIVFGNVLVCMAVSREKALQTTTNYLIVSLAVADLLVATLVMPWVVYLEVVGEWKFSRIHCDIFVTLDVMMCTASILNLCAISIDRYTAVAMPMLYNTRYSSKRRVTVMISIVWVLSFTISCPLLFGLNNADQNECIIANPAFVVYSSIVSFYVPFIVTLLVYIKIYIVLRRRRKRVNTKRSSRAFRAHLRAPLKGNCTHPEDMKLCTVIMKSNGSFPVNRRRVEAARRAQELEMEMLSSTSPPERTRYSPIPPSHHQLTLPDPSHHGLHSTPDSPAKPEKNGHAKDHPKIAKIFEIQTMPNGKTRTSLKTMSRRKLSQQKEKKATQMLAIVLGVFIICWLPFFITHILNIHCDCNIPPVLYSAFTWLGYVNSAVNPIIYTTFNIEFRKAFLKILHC

[7] = biological target: T1, Adenosine A1 (Homo sapiens, UniProt P30542); experiment: receptor screen, Adenosine A1; format: binding; details: [3H]DPCPX, inactive = displacement at 10,000 nM less than 75%
T1 sequence (P30542 1-326): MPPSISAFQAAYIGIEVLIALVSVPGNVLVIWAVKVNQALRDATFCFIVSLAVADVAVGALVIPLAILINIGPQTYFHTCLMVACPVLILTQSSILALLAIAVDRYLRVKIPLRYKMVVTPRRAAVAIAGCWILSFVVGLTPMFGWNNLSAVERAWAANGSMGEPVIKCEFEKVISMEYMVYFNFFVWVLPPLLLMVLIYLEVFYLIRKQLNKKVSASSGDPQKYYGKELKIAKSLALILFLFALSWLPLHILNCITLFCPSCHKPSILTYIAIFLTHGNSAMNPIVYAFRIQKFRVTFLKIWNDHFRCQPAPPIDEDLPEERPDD

[8] = biological target: T2, Glucocorticoid (Homo sapiens, UniProt P04150); experiment: receptor screen, Glucocorticoid; format: binding; details: inactive = displacement at 10,000 nM less than 75%
T2 sequence (P04150 1-777): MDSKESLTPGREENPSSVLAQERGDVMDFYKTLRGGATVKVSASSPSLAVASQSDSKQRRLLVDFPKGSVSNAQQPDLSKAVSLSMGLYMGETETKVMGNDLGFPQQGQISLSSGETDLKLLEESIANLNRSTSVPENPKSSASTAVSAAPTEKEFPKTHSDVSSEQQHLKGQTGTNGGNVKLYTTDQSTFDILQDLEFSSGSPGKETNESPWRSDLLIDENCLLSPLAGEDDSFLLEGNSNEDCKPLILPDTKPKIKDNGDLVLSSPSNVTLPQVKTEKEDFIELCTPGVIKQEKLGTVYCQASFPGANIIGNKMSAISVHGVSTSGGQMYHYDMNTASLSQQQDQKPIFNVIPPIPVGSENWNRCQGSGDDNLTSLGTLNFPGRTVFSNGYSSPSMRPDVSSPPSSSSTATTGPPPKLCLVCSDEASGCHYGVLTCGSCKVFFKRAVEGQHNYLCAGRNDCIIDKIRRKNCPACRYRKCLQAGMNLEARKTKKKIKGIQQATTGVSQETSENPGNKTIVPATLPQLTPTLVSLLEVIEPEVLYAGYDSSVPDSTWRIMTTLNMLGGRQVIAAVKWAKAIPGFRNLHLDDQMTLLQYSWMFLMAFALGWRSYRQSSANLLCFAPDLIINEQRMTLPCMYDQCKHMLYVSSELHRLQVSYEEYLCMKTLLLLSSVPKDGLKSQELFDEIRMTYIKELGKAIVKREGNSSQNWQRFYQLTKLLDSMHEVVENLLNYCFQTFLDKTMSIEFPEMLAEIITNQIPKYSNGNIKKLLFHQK

[9] = biological target: T3, Muscarinic M2 (Homo sapiens, UniProt P08172); experiment: receptor screen, Muscarinic M2; format: binding; details: read-out: Ki Muscarinic M2, [3H]N-methylscopolamine
T3 sequence (P08172 1-466): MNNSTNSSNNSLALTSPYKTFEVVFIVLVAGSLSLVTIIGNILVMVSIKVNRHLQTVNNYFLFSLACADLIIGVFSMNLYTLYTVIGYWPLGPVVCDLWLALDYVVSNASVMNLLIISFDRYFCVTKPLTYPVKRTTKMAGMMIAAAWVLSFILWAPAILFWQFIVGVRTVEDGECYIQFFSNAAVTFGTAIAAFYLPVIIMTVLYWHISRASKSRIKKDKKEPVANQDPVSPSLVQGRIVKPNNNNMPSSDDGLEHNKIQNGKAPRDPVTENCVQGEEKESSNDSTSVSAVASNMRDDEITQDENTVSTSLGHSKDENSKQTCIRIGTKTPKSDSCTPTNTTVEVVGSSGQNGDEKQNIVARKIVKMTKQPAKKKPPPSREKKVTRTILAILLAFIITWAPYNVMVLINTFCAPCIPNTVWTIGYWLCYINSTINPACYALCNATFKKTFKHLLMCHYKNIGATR

[10] = biological target: T4, Progesterone (Bos taurus, UniProt F1N712); experiment: receptor screen, Progesterone; format: binding, Bovine; details: [3H]R-5020, inactive = displacement at 10,000 nM less than 75%
T4 sequence (F1N712 1-914): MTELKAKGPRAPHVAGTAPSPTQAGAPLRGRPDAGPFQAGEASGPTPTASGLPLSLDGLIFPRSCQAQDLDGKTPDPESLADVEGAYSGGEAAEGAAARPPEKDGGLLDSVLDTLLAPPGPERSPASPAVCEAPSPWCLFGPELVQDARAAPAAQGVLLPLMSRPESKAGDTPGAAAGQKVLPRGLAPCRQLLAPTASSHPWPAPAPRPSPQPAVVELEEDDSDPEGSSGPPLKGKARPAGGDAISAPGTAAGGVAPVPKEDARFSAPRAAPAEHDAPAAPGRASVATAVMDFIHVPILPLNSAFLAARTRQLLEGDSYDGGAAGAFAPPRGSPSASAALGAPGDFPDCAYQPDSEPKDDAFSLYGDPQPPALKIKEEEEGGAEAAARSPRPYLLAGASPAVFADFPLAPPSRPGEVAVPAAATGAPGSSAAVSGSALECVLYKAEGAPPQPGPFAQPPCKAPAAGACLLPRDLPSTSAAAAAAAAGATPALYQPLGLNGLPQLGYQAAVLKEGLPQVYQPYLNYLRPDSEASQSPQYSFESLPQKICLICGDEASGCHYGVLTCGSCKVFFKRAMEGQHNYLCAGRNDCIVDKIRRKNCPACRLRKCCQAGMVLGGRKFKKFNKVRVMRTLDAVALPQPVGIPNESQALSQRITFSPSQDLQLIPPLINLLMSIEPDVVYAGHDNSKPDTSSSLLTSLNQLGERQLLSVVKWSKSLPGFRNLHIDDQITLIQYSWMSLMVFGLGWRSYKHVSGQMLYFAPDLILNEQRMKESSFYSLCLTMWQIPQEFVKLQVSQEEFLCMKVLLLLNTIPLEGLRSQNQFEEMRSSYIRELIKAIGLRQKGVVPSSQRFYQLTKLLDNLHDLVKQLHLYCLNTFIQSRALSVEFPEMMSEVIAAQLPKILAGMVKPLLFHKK

[11] = biological target: Muscarinic M3 (Homo sapiens, UniProt P20309); experiment: receptor screen, Muscarinic M3; format: binding; details: read-out: Ki Muscarinic M3, [3H]N-methylscopolamine
Sequence of Muscarinic M3 (P20309 whole entry): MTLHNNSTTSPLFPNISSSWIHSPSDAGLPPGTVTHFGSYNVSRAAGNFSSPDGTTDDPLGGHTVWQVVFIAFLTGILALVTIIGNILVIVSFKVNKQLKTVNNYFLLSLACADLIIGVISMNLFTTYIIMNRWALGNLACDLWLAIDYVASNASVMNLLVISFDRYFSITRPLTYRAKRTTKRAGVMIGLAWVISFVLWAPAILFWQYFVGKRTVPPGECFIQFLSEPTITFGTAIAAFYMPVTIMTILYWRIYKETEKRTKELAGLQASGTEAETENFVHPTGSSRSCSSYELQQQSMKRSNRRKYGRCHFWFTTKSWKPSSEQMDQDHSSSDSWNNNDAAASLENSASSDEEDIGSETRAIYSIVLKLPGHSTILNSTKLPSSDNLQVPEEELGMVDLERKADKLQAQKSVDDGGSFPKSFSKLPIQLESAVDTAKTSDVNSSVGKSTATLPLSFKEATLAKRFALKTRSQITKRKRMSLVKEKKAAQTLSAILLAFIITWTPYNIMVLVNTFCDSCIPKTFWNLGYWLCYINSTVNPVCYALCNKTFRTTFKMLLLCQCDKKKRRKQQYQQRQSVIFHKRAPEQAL

[12] = biological target: Estrogen ERα (Homo sapiens, UniProt P03372); experiment: receptor screen, Estrogen ERα; format: binding; details: inactive = displacement at 10,000 nM less than 75%
Sequence of Estrogen ERα (P03372 whole entry): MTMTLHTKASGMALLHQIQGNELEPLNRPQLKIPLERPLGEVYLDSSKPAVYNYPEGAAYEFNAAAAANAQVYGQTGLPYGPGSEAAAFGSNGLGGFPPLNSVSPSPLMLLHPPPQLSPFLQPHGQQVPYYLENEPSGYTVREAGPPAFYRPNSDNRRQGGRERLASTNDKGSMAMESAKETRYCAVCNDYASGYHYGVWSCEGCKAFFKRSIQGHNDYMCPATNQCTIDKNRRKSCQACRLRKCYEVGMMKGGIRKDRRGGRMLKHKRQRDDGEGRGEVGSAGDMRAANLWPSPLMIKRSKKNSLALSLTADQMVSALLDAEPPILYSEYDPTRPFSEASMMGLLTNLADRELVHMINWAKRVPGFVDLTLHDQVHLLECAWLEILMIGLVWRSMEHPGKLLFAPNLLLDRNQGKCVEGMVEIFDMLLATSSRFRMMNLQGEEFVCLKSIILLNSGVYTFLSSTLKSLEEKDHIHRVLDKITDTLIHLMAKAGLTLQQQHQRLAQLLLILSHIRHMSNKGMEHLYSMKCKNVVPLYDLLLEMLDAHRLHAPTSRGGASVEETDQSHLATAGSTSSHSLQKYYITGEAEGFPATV

[13] = biological target: T5, Testosterone (Rattus norvegicus, UniProt P15207); experiment: receptor screen, Testosterone; format: binding; details: inactive = displacement at 10,000 nM less than 75%
T5 sequence (P15207 651-882 limits assumed): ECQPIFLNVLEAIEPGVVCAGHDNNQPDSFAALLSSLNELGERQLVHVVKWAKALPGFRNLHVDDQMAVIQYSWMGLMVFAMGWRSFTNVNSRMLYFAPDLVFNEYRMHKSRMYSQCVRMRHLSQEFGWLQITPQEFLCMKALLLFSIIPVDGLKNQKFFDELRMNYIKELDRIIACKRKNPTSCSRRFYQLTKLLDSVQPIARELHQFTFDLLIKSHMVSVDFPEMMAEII

[14] = i.p. (1 to 10 mg/kg), injected immediately before conditioning sessions
[15] = 10 mg/kg i.p., initial phase, first 30 min (cocaine: up to the maximum)

Sequence of K+ Channel hERG (Q12809 whole entry): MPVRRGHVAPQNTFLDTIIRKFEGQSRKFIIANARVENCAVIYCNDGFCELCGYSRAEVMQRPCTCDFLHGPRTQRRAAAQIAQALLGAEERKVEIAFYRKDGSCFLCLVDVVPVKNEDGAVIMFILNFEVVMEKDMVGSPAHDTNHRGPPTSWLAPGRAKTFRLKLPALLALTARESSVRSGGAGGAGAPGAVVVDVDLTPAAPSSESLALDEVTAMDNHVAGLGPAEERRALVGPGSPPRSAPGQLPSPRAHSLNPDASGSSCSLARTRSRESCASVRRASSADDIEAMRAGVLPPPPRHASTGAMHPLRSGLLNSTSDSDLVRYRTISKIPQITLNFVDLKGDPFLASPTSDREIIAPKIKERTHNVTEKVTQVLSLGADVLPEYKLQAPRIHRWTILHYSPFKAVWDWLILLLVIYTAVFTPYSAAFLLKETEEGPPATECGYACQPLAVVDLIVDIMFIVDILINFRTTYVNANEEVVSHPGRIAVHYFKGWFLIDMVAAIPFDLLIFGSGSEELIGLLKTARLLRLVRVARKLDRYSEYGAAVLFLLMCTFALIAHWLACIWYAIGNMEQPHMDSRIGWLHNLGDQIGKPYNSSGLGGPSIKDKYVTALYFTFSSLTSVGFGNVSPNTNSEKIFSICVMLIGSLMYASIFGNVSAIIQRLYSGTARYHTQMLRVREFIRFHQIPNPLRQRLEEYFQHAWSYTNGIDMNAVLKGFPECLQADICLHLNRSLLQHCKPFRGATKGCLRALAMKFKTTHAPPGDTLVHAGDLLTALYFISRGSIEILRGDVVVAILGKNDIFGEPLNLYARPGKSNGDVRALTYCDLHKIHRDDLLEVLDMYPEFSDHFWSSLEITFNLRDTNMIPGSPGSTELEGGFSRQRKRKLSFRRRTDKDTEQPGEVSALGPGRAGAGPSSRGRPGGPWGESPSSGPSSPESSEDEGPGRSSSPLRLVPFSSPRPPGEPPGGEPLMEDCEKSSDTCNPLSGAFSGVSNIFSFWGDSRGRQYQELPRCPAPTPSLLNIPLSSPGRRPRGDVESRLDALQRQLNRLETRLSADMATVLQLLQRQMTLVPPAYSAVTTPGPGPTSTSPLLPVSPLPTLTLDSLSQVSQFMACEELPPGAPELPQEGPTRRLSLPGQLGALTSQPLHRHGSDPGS

| SMILES | selectivity K+ hERG channel over the DAT [1] | place conditioning (time allocated to compound-paired compartment) [2, 14] | effect on dialysate DA levels from the NAC shell ([3]; 1.0 mg/kg i.p.) | effect on dialysate DA levels from the NAC shell ([3]; 3.0 mg/kg i.p.) | DA concentrations in NAC shell at times of conditioning sessions compared with 3.0 mg/kg cocaine (165% of basal) ([3]; 3.0 mg/kg i.p.) | duration of increase in DA levels ([3]; 10 mg/kg i.p.) | time after injection at which DA exceeded 165% of basal values ([3]; 10 mg/kg i.p.) | time after injection until which DA increase continued (peak) ([3]; 10 mg/kg i.p.) | rate of increase in DA concentrations [3, 15] | DA concentrations in NAC shell at times of conditioning sessions compared with 3.0 mg/kg cocaine (165% of basal) ([3]; 10.0 mg/kg i.p.) | effect on dialysate DA levels from the NAC shell ([3]; 10 mg/kg i.p.) | other results |
| --- | --- | --- | --- | --- | --- | --- | --- | --- | --- | --- | --- | --- |
| CCOC(=O)[C@@H]1C(OC(c2ccc(Cl)cc2)c2ccc(Cl)cc2)C[C@@H]2CC[C@H]1N2C (mixture of isomers) [MFZ 4-86, (±)-2α-carboethoxy-3R-[bis(4-chlorophenyl)methoxy]tropane] | ~ 20 fold | without significant place-conditioning effects | increases in DA that did not achieve statistical significance | also increased DA concentrations, though less than at the higher dose | levels that approximated those of cocaine in all but the first 30 min | remained elevated for the entire five-hr session | 20 min | about 120 min | 6.74 (±0.371) %/min | levels that exceeded those of the 3.0 mg/kg dose of cocaine at all pretreatment times | – | time after injection at which DA exceeded 165% of basal values ([3]; 3.0 mg/kg i.p.): 50 min; rate of increase in DA concentrations ([3]; 3.0 mg/kg i.p., initial phase (cocaine: up to the maximum)): 3.05 (±0.270) %/min; potency in Y335A mutant DAT relative to wild-type DAT (fold lower) ([4]; ref Loland et al. 2008): ~13 fold |
| COC(=O)[C@@H]1C(OC(c2ccc(Cl)cc2)c2ccc(Cl)cc2)C[C@@H]2CC[C@H]1N2C (mixture of isomers) [MFZ 4-87, (±)-2α-carbomethoxy-3R-[bis(4-chlorophenyl)methoxy]tropane] | ~ 20 fold | did not produce a change in allocation of time to the compound-paired compartment | – | – | levels that approximated those of cocaine in all but the first 30 min | ≥ 4 h | – | about 160 min | 5.59 (±0.712) %/min | levels that exceeded those of the 3.0 mg/kg dose of cocaine at all pretreatment times | – | increase in dialysate DA concentrations ([3]; 1.0 mg/kg i.p.): ≤ 165 % of basal levels; increase in dialysate DA concentrations ([3]; 3.0 mg/kg i.p., slightly exceeded): exceeded 165 % of basal levels; maximum / maintained DA concentration ([3]; 10 mg/kg i.p.): about 350 % of basal levels; selectivity for the DAT compared to any other site assayed [5]: ~ 30 fold |
| CN1C2CCC1CC(OC(c1ccc(Cl)cc1)c1ccc(Cl)cc1)C2 (stereo not drawn) [4,4-diCl-BZT, 4′-chloro-4″-chloro-3α-(diphenylmethoxy)tropane] | – | without significant place-conditioning effects | did not significantly affect DA levels | did not significantly affect DA levels | – | – | ≤ 20 min | about 140 min | – | – | significant increase in DA levels | Ki Dopamine D2L [6]: inactive; Ki Adenosine A1 [7]: inactive; Ki Glucocorticoid [8]: inactive; Ki [9]: 640 nM; Ki Progesterone [10]: inactive; Ki [11]: 10 nM; Ki Estrogen ERα [12]: inactive; Ki Testosterone [13]: inactive |
| COC(=O)[C@H]1[C@@H](OC(=O)c2ccccc2)C[C@@H]2CC[C@H]1N2C [cocaine, (−)-cocaine, reference compound] | – | – | – | significantly increased extracellular DA concentrations | – | – | – | – | 11.4 (±0.860) %/min | – | significantly increased extracellular DA concentrations | place conditioning (time allocated to compound-paired compartment) ([2]; i.p., each dose tested, injected immediately before sessions): significant place conditioning; rate of increase in DA concentrations ([3]; 3.0 mg/kg i.p., initial phase (cocaine: up to the maximum), 3 mg/kg): 4.84 (±0.359) %/min and 4.84 %/min; potency in Y335A mutant DAT relative to wild-type DAT ([4]; ref Loland et al. 2002): reduced by about two orders of magnitude |
